Reference: article PMC5218480 (PLoS ONE, 2017)

System: MV-4-11 cells
Assay: Gene expression microarray analysis (Affymetrix PrimeView) and GSEA
Format: cell-based, human
Parameters: RFU PODN (11730768_x_at) / Fold change /veh PODN (11730768_x_at) / RFU LINC00158 (11744669_a_at) / Fold change /veh LINC00158 (11744669_a_at) / RFU DUSP10 (11751237_a_at) / Fold change /veh DUSP10 (11751237_a_at) / RFU ID3 (11757404_x_at) / Fold change /veh ID3 (11757404_x_at) / RFU PLEKHG5 (11737974_s_at) / Fold change /veh PLEKHG5 (11737974_s_at) / RFU LRRC4B (11730491_at) / Fold change /veh LRRC4B (11730491_at) / RFU GIMAP4 (11747438_a_at) / Fold change /veh GIMAP4 (11747438_a_at) / RFU KRT8 (11758183_x_at) / Fold change /veh KRT8 (11758183_x_at) / RFU CNN1 (11734310_a_at) / Fold change /veh CNN1 (11734310_a_at) / RFU VPS37D (11726825_at) / Fold change /veh VPS37D (11726825_at) / RFU C10orf10 (11716522_x_at) / Fold change /veh C10orf10 (11716522_x_at) / RFU KIR2DL2 /// KIR2DL4 /// KIR2DL5A /// KIR2DL5B /// KIR2DS1 /// KIR2DS2 /// KIR2DS3 /// KIR2DS4 /// KIR3DL3 /// KIR3DL3 /// KIR3DS1 (11738374_at) / Fold change /veh KIR2DL2 /// KIR2DL4 /// KIR2DL5A /// KIR2DL5B /// KIR2DS1 /// KIR2DS2 /// KIR2DS3 /// KIR2DS4 /// KIR3DL3 /// KIR3DL3 /// KIR3DS1 (11738374_at) / RFU C1QL1 (11718748_at) / Fold change /veh C1QL1 (11718748_at) / RFU TMPRSS4 (11747572_a_at) / Fold change /veh TMPRSS4 (11747572_a_at) / RFU HAMP (11756126_x_at) / Fold change /veh HAMP (11756126_x_at) / RFU RNFT2 (11725882_a_at) / Fold change /veh RNFT2 (11725882_a_at) / RFU NR4A2 (11747474_a_at) / Fold change /veh NR4A2 (11747474_a_at) / RFU ABCC12 (11746883_a_at) / Fold change /veh ABCC12 (11746883_a_at) / RFU TMEM136 (11760407_x_at) / Fold change /veh TMEM136 (11760407_x_at) / RFU CLDN22 /// WWC2 (11732394_at) / Fold change /veh CLDN22 /// WWC2 (11732394_at) / RFU HLA-DPB1 (11760878_x_at) / Fold change /veh HLA-DPB1 (11760878_x_at) / RFU SPINT1 (11716480_a_at) / Fold change /veh SPINT1 (11716480_a_at) / RFU GAP43 (11754022_s_at) / Fold change /veh GAP43 (11754022_s_at) / RFU A4GNT (11735810_at) / Fold change /veh A4GNT (11735810_at) / RFU PRB3 (11715151_x_at) / Fold change /veh PRB3 (11715151_x_at) / RFU TUBB4B (11761932_at) / Fold change /veh TUBB4B (11761932_at) / RFU CAPN14 (11732068_a_at) / Fold change /veh CAPN14 (11732068_a_at) / RFU TMCC2 (11721928_a_at) / Fold change /veh TMCC2 (11721928_a_at) / RFU IRGQ (11745062_a_at) / Fold change /veh IRGQ (11745062_a_at) / RFU FAM174B (11720279_a_at) / Fold change /veh FAM174B (11720279_a_at) / RFU TMPRSS4 (11748680_a_at) / Fold change /veh TMPRSS4 (11748680_a_at) / RFU FAM212B (11763350_a_at) / Fold change /veh FAM212B (11763350_a_at) / RFU PLEKHG5 (11743358_a_at) / Fold change /veh PLEKHG5 (11743358_a_at) / RFU ZSCAN30 (11745921_a_at) / Fold change /veh ZSCAN30 (11745921_a_at) / RFU CMKLR1 (11741424_a_at) / Fold change /veh CMKLR1 (11741424_a_at) / RFU LOC101060620 /// MAPK8IP1 (11723275_at) / Fold change /veh LOC101060620 /// MAPK8IP1 (11723275_at) / RFU SPTSSB (11747773_x_at) / Fold change /veh SPTSSB (11747773_x_at) / RFU PRSS12 (11739890_at) / Fold change /veh PRSS12 (11739890_at) / RFU BIN1 (11741810_x_at) / Fold change /veh BIN1 (11741810_x_at) / RFU WNT11 (11732464_a_at) / Fold change /veh WNT11 (11732464_a_at) / RFU C10orf10 (11716521_a_at) / Fold change /veh C10orf10 (11716521_a_at) / RFU C5orf56 (11738089_at) / Fold change /veh C5orf56 (11738089_at) / RFU CYB561 (11721691_x_at) / Fold change /veh CYB561 (11721691_x_at) / RFU ANKRD19P (11752326_a_at) / Fold change /veh ANKRD19P (11752326_a_at) / RFU OR2T12 /// OR2T33 /// OR2T8 (11738714_s_at) / Fold change /veh OR2T12 /// OR2T33 /// OR2T8 (11738714_s_at) / RFU VCAN (11748164_a_at) / Fold change /veh VCAN (11748164_a_at) / RFU JSRP1 (11732532_at) / Fold change /veh JSRP1 (11732532_at) / RFU KRTAP10-11 (11738290_x_at) / Fold change /veh KRTAP10-11 (11738290_x_at) / RFU MYO3A (11730013_a_at) / Fold change /veh MYO3A (11730013_a_at) / RFU EBF3 (11725865_a_at) / Fold change /veh EBF3 (11725865_a_at) / RFU CAMK2N1 (11719241_x_at) / Fold change /veh CAMK2N1 (11719241_x_at) / RFU C5orf56 (11738088_a_at) / Fold change /veh C5orf56 (11738088_a_at) / RFU OLFML3 (11715873_a_at) / Fold change /veh OLFML3 (11715873_a_at) / RFU LOC100653217 /// NTM (11731650_a_at) / Fold change /veh LOC100653217 /// NTM (11731650_a_at) / RFU MAPK11 (11762145_a_at) / Fold change /veh MAPK11 (11762145_a_at) / RFU FIZ1 (11724087_x_at) / Fold change /veh FIZ1 (11724087_x_at) / RFU OASL (11726364_x_at) / Fold change /veh OASL (11726364_x_at) / RFU SOX15 (11748057_x_at) / Fold change /veh SOX15 (11748057_x_at) / RFU CD79A (11719716_a_at) / Fold change /veh CD79A (11719716_a_at) / RFU HIST1H1D (11736915_at) / Fold change /veh HIST1H1D (11736915_at) / RFU CASKIN2 (11723855_a_at) / Fold change /veh CASKIN2 (11723855_a_at) / RFU LOC730098 (11760151_x_at) / Fold change /veh LOC730098 (11760151_x_at) / RFU OR4N2 (11742367_at) / Fold change /veh OR4N2 (11742367_at) / RFU PRRT2 (11749266_a_at) / Fold change /veh PRRT2 (11749266_a_at) / RFU SNX32 (11753110_a_at) / Fold change /veh SNX32 (11753110_a_at) / RFU CDHR5 (11726645_a_at) / Fold change /veh CDHR5 (11726645_a_at) / RFU RCAN1 (11760418_a_at) / Fold change /veh RCAN1 (11760418_a_at) / RFU FAM167A (11723789_a_at) / Fold change /veh FAM167A (11723789_a_at) / RFU FAM26E (11764081_at) / Fold change /veh FAM26E (11764081_at) / RFU ISYNA1 (11749810_s_at) / Fold change /veh ISYNA1 (11749810_s_at) / RFU ACY1 (11761880_at) / Fold change /veh ACY1 (11761880_at) / RFU 11764098_at / Fold change /veh 11764098_at / RFU SAMD14 (11745864_x_at) / Fold change /veh SAMD14 (11745864_x_at) / RFU NPB (11741838_a_at) / Fold change /veh NPB (11741838_a_at) / RFU TMPRSS6 (11731388_a_at) / Fold change /veh TMPRSS6 (11731388_a_at) / RFU KRTAP10-2 (11738614_at) / Fold change /veh KRTAP10-2 (11738614_at) / RFU ARHGAP8 /// PRR5-ARHGAP8 (11727945_x_at) / Fold change /veh ARHGAP8 /// PRR5-ARHGAP8 (11727945_x_at) / RFU KRTAP5-7 /// NADSYN1 (11734609_at) / Fold change /veh KRTAP5-7 /// NADSYN1 (11734609_at) / RFU RASL12 (11751679_a_at) / Fold change /veh RASL12 (11751679_a_at) / RFU CDKN2B (11736163_a_at) / Fold change /veh CDKN2B (11736163_a_at) / RFU PRF1 (11729649_at) / Fold change /veh PRF1 (11729649_at) / RFU, ZNF638 /// ZNF638-IT1 / Fold change vs veh, ZNF638 /// ZNF638-IT1 / RFU, PANK3 / Fold change vs veh, PANK3 / RFU, SH3YL1 / Fold change vs veh, SH3YL1 / RFU, ZEB2 / Fold change vs veh, ZEB2 / RFU, NRIP1 / Fold change vs veh, NRIP1 / RFU, PTTG1IP / Fold change vs veh, PTTG1IP / RFU, CAPN2 / Fold change vs veh, CAPN2 / RFU, MED14 / Fold change vs veh, MED14 / RFU, SNORA58 / Fold change vs veh, SNORA58 / RFU, C1orf63 / Fold change vs veh, C1orf63 / RFU, LRRFIP1 / Fold change vs veh, LRRFIP1 / RFU, NDUFAF7 / Fold change vs veh, NDUFAF7 / RFU, SLC12A2 / Fold change vs veh, SLC12A2 / RFU, IBTK / Fold change vs veh, IBTK / RFU, ESF1 / Fold change vs veh, ESF1 / Fold change vs veh, TMEM50B / RFU, TAOK1 / Fold change vs veh, TAOK1 / RFU, ACBD3 / Fold change vs veh, ACBD3 / RFU, TMA16 / Fold change vs veh, TMA16 / RFU, RWDD3 / Fold change vs veh, RWDD3 / RFU, BCAT1 / Fold change vs veh, BCAT1 / RFU, EDEM3 / Fold change vs veh, EDEM3 / RFU, TMEM33 / Fold change vs veh, TMEM33 / RFU, WDR75 / Fold change vs veh, WDR75 / RFU, AHCTF1 / Fold change vs veh, AHCTF1 / RFU, TFRC / Fold change vs veh, TFRC / RFU, ZDHHC17 / Fold change vs veh, ZDHHC17 / RFU, NOM1 / Fold change vs veh, NOM1 / RFU, ARL8B / Fold change vs veh, ARL8B / RFU, ZBTB11 / Fold change vs veh, ZBTB11 / RFU, TAMM41 / Fold change vs veh, TAMM41 / RFU, KIAA1704 /// LOC100996395 / Fold change vs veh, KIAA1704 /// LOC100996395 / RFU, ING1 / Fold change vs veh, ING1 / RFU, TRMT61B / Fold change vs veh, TRMT61B / RFU, FUBP3 / Fold change vs veh, FUBP3 / RFU, TP53 / Fold change vs veh, TP53 / RFU, TNKS2 / Fold change vs veh, TNKS2 / RFU, ZFP14 / Fold change vs veh, ZFP14 / RFU, ACTR2 / Fold change vs veh, ACTR2 / RFU, PPP3R1 / Fold change vs veh, PPP3R1 / RFU, PIK3R1 / Fold change vs veh, PIK3R1 / RFU, HNRNPA1 / Fold change vs veh, HNRNPA1 / RFU, RNF170 / Fold change vs veh, RNF170 / RFU, ZNF28 / Fold change vs veh, ZNF28 / RFU, RNGTT / Fold change vs veh, RNGTT / RFU, OGT / Fold change vs veh, OGT / RFU, BRD1 / Fold change vs veh, BRD1 / RFU, MARS / Fold change vs veh, MARS / RFU, ZNF655 / Fold change vs veh, ZNF655 / RFU, FAHD1 / Fold change vs veh, FAHD1 / RFU, BDP1 / Fold change vs veh, BDP1 / RFU, LRRCC1 / Fold change vs veh, LRRCC1 / RFU, ARID1A / Fold change vs veh, ARID1A / RFU, ZNF146 / Fold change vs veh, ZNF146 / RFU, ZNF330 / Fold change vs veh, ZNF330 / RFU, GPN3 / Fold change vs veh, GPN3 / RFU, C9orf123 / Fold change vs veh, C9orf123 / RFU, N4BP2L2 / Fold change vs veh, N4BP2L2 / RFU, ARFIP1 / Fold change vs veh, ARFIP1 / RFU, FAM179B / Fold change vs veh, FAM179B / RFU, BCL10 / Fold change vs veh, BCL10 / RFU, UHRF1BP1L / Fold change vs veh, UHRF1BP1L / RFU, BET1 / Fold change vs veh, BET1 / RFU, CNOT2 / Fold change vs veh, CNOT2 / RFU, ZNF268 / Fold change vs veh, ZNF268 / Fold change vs veh, ZNF507 / RFU, DGCR2 / Fold change vs veh, DGCR2 / RFU, WDSUB1 / Fold change vs veh, WDSUB1 / Fold change vs veh, HSP90B1 /// MIR3652 / RFU, ADSS / Fold change vs veh, ADSS / RFU, GK / Fold change vs veh, GK / RFU, ZNF148 / Fold change vs veh, ZNF148 / RFU, TAF9 / Fold change vs veh, TAF9 / RFU, SLC1A5 / Fold change vs veh, SLC1A5 / RFU, SLMO2 / Fold change vs veh, SLMO2 / RFU, ABCC4 / Fold change vs veh, ABCC4 / RFU, LOC101060439 /// RAP1B / Fold change vs veh, LOC101060439 /// RAP1B / RFU, RFX7 / Fold change vs veh, RFX7 / RFU, GTPBP10 / Fold change vs veh, GTPBP10 / RFU, CNEP1R1 / Fold change vs veh, CNEP1R1 / RFU, BIVM-ERCC5 /// ERCC5 / Fold change vs veh, BIVM-ERCC5 /// ERCC5 / RFU, ILF3 / Fold change vs veh, ILF3 / RFU 11762660_at / Fold change /veh 11762660_at / RFU VCAN (11757783_s_at) / Fold change /veh VCAN (11757783_s_at) / RFU DDX43 (11728927_at) / Fold change /veh DDX43 (11728927_at) / RFU KRT8 (11758188_x_at) / Fold change /veh KRT8 (11758188_x_at) / RFU NKD1 (11759106_at) / Fold change /veh NKD1 (11759106_at) / RFU SRD5A1 (11742802_a_at) / Fold change /veh SRD5A1 (11742802_a_at) / RFU TPSAB1 /// TPSB2 (11721975_s_at) / Fold change /veh TPSAB1 /// TPSB2 (11721975_s_at) / RFU GSTM3 (11746129_a_at) / Fold change /veh GSTM3 (11746129_a_at) / RFU IL23R (11737362_x_at) / Fold change /veh IL23R (11737362_x_at) / RFU TMEM51 (11727254_a_at) / Fold change /veh TMEM51 (11727254_a_at) / RFU PIWIL2 (11732686_x_at) / Fold change /veh PIWIL2 (11732686_x_at) / RFU ORM1 (11744905_x_at) / Fold change /veh ORM1 (11744905_x_at) / RFU CCDC152 (11743942_at) / Fold change /veh CCDC152 (11743942_at) / RFU ECM1 (11717891_a_at) / Fold change /veh ECM1 (11717891_a_at) / RFU IL23R (11748794_a_at) / Fold change /veh IL23R (11748794_a_at) / RFU TNFAIP8L3 (11732012_x_at) / Fold change /veh TNFAIP8L3 (11732012_x_at) / RFU MBOAT4 (11741988_at) / Fold change /veh MBOAT4 (11741988_at) / RFU 11764193_at / Fold change /veh 11764193_at / RFU TMEM53 (11763286_at) / Fold change /veh TMEM53 (11763286_at) / RFU MAGEB2 (11727129_at) / Fold change /veh MAGEB2 (11727129_at) / RFU TMEM200A (11744735_a_at) / Fold change /veh TMEM200A (11744735_a_at) / RFU CCDC152 (11751479_a_at) / Fold change /veh CCDC152 (11751479_a_at) / RFU FAM211A (11726209_a_at) / Fold change /veh FAM211A (11726209_a_at) / RFU RGS16 (11746705_a_at) / Fold change /veh RGS16 (11746705_a_at) / RFU VCAN (11755009_s_at) / Fold change /veh VCAN (11755009_s_at) / RFU RHOB (11743442_s_at) / Fold change /veh RHOB (11743442_s_at) / RFU RGS16 (11720943_a_at) / Fold change /veh RGS16 (11720943_a_at) / RFU RGS16 (11720944_at) / Fold change /veh RGS16 (11720944_at) / RFU, VPS4B / Fold change vs veh, VPS4B / RFU, CREB1 / Fold change vs veh, CREB1 / RFU, DNAJC13 / Fold change vs veh, DNAJC13 / RFU, GNAQ / Fold change vs veh, GNAQ / RFU, CDK5R1 / Fold change vs veh, CDK5R1 / RFU, ZRANB3 / Fold change vs veh, ZRANB3 / RFU, CUL4A / Fold change vs veh, CUL4A / RFU, CCNY / Fold change vs veh, CCNY / RFU, UFL1 / Fold change vs veh, UFL1 / RFU, COG3 / Fold change vs veh, COG3 / RFU, DIAPH2 / Fold change vs veh, DIAPH2 / RFU, SKA2 / Fold change vs veh, SKA2 / RFU, AFF3 / Fold change vs veh, AFF3 / RFU, LMF1 / Fold change vs veh, LMF1 / RFU, IPO11 / Fold change vs veh, IPO11 / RFU, DFFB / Fold change vs veh, DFFB / RFU, FOXP1 / Fold change vs veh, FOXP1 / RFU, CARD8 / Fold change vs veh, CARD8 / RFU, STRN3 / Fold change vs veh, STRN3 / RFU, ADK / Fold change vs veh, ADK / RFU, RASSF2 / Fold change vs veh, RASSF2 / RFU, WIPF1 / Fold change vs veh, WIPF1 / RFU, LARP1B / Fold change vs veh, LARP1B / RFU, RASA1 / Fold change vs veh, RASA1 / RFU, RB1 / Fold change vs veh, RB1 / RFU, PPFIA1 / Fold change vs veh, PPFIA1 / RFU, MAT2A / Fold change vs veh, MAT2A / RFU, CCT5 / Fold change vs veh, CCT5 / RFU, WDR92 / Fold change vs veh, WDR92 / RFU, CUX1 / Fold change vs veh, CUX1 / RFU, TTC7A / Fold change vs veh, TTC7A / RFU, TMEM135 / Fold change vs veh, TMEM135 / RFU, DEPTOR / Fold change vs veh, DEPTOR / RFU, CPM / Fold change vs veh, CPM / RFU, DNAJB6 / Fold change vs veh, DNAJB6 / RFU, CACNA2D3 / Fold change vs veh, CACNA2D3 / RFU, DTX4 / Fold change vs veh, DTX4 / RFU, TFCP2 / Fold change vs veh, TFCP2 / RFU, GMCL1 /// GMCL1P1 / Fold change vs veh, GMCL1 /// GMCL1P1 / RFU, AEBP2 / Fold change vs veh, AEBP2 / RFU, SNHG1 /// SNORD22 /// SNORD25 /// SNORD26 /// SNORD27 /// SNORD28 /// SNORD29 /// SNORD31 / Fold change vs veh, SNHG1 /// SNORD22 /// SNORD25 /// SNORD26 /// SNORD27 /// SNORD28 /// SNORD29 /// SNORD31 / Fold change (Aza/veh), C12orf56 (ProbeSet 11735607_a_at) / Fold change (ACY-1035/veh), C12orf56 (ProbeSet 11735607_a_at) / Fold change (Aza/veh), FGFR1OP (ProbeSet 11751329_s_at) / Fold change (ACY-1035/veh), FGFR1OP (ProbeSet 11751329_s_at) / Fold change (Aza/veh), VPS36 (ProbeSet 11739960_a_at) / Fold change (ACY-1035/veh), VPS36 (ProbeSet 11739960_a_at) / RFU SYPL1 (11715823_x_at) / Fold change /veh SYPL1 (11715823_x_at) / RFU IGFBP7 (11715501_s_at) / Fold change /veh IGFBP7 (11715501_s_at) / RFU REEP3 (11722064_at) / Fold change /veh REEP3 (11722064_at) / RFU IGLL1 (11728026_x_at) / Fold change /veh IGLL1 (11728026_x_at): dose or concentration left out as unconfirmed
Settings: MV-4-11 cells, 48 hours

## Nc1ncn([C@@H]2O[C@H](CO)[C@@H](O)[C@H]2O)c(=O)n1 [azacitidine]
  RFU SYPL1 (11715823_x_at): 860.69 RFU
